Experimental data taken from paper PMC4745685, “Caffeine affects the biological responses of human hematopoietic cells of myeloid lineage via downregulation of the mTOR pathway and xanthine oxidase activity” (Oncotarget, 2015).

Target: T1, xanthine oxidase (XOD) (Bos taurus, UniProt P80457)
T1 construct: gene XDH; purified bovine liver XOD
Test: enzyme kinetics, Lineweaver-Burk analysis with purified bovine liver XOD
Format: biochemical

T1 sequence (P80457 2-1332): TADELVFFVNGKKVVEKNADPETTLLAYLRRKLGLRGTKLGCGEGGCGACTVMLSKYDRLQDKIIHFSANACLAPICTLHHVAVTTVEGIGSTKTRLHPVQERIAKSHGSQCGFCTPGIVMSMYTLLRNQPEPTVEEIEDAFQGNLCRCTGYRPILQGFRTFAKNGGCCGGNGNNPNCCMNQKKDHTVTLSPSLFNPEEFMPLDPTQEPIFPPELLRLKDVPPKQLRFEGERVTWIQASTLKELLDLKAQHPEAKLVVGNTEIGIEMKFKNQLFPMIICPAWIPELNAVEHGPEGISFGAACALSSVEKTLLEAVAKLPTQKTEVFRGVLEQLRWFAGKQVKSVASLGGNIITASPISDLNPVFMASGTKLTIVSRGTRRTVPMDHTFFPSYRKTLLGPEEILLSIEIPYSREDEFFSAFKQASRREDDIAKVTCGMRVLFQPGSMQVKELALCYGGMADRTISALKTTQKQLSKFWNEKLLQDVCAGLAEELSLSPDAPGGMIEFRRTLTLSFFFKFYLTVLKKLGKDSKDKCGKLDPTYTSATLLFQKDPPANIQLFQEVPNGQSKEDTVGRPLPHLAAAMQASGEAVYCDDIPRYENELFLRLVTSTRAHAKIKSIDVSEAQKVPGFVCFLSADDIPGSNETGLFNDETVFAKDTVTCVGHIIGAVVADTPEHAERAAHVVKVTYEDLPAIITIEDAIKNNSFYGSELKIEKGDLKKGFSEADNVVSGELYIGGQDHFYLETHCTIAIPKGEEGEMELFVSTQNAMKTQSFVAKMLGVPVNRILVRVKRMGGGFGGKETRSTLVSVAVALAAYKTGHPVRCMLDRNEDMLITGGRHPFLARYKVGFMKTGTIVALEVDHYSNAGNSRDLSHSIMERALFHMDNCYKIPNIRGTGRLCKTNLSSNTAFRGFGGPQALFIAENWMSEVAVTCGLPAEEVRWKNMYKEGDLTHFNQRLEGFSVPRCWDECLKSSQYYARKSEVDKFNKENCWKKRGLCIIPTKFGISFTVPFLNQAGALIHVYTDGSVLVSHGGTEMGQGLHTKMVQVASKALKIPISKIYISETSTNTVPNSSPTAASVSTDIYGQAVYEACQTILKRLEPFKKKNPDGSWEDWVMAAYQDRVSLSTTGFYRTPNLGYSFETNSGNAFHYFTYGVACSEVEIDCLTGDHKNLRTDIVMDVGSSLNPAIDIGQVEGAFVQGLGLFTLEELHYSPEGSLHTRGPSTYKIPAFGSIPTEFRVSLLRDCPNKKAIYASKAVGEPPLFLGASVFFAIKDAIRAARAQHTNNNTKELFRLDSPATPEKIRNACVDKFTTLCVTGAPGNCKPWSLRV

Question: For `Cn1c(=O)c2c(ncn2C)n(C)c1=O` [caffeine, 1,3,7-trimethylxanthine], which Ki is on record?
Answer: The Ki was 4.02 mM.
